Read-outs that look alike come from different tables or passages of the source. Bridge positions count the residues as written; N and C are the ends. Square brackets hold non-standard residues; d marks the D form. Ends that are not written are not given here. Peptide text beside a SMILES is read from it. Pen = CC(C)(S)[C@H](N)C(=O)O
Legend:
[1] = test system: human tonsil T cells (responders) with irradiated human mononuclear stimulator cells; T-cell proliferation; type: cell-based; conditions: for inhibitory effect on T-cell proliferation: FIG. 3, tested at 125, 250 and 500 μM; for Inhibition of T-cell Proliferation (%): peptides at 500 μM; for effectiveness in inhibiting responder T-cell proliferation: FIG. 2, tested at 50, 150, 250, 350, 500 and 750 μM
Excerpt: The one-way MLR has been previously described (Kruisbeek et al., Current Protocols in Immunology, Proliferative Assays for T-Cell Function, '3.12.1-3.12.14 (1991), which is incorporated herein by reference). Specifically, human tonsil T cells were suspended at a concentration of 2−4×10^6 cells/ml in cell culture medium (RPMI), for use as responders. Stimulator cells were human mononuclear cells isolated from first Ficoll separation of peripheral blood (buffy coat) and were suspended at a concentration of 2−4×10^6 cells/ml in cell culture medium (RPMI). The stimulator cells were inactivated before use by treatment with 3,000-5,000 rad of ionizing radiation from γ137Cs source. One hundred μl of each cell suspension were combined in each well of a 96-well plate in the absence or presence of varying concentrations of test polypeptides, as detailed below. Cell proliferation was assessed after 72 hours, by 3H-thymidine addition to each well (1 μCi/well, 67 Ci/mmol) with incubation for six hours. The cells were harvested using a PHD Cell Harvester (Cambridge Technology, Inc., Watertown, Mass.); the incorporated 3H was assessed using a liquid scintillation counter (Packard Instrument, Inc., Donner's Grove, Ill.).
In FIGS. 2 and 3, the Y-axis values are mean percentage ±SE of proliferation of responders. “2s” refers to irradiated buffy coat cells, and “2r” refers to T-lymphocytes derived from tonsil. “2s2r” refers to non-treated, mixed lymphocyte sample, which is the positive control (represented by dashed line). Inhibition of proliferation by anti-CD11a antibody (Pharmingen, anti-human CD11a) was used as a control for inhibition of the LFA-1/ICAM-1 interaction. These polypeptides are derived from the human LFA-1 β (CD18) subunit.

[2] = biological target: intracellular adhesion molecule (ICAM-1; CD54) (UniProt P05362 28-532, limits assumed); experiment: cell-based or functional assay
[3] = linear D-peptides (*3), minus value = peptide activated T-lymphocytes

Chain of intracellular adhesion molecule (ICAM-1; CD54) (P05362 28-532 limits assumed): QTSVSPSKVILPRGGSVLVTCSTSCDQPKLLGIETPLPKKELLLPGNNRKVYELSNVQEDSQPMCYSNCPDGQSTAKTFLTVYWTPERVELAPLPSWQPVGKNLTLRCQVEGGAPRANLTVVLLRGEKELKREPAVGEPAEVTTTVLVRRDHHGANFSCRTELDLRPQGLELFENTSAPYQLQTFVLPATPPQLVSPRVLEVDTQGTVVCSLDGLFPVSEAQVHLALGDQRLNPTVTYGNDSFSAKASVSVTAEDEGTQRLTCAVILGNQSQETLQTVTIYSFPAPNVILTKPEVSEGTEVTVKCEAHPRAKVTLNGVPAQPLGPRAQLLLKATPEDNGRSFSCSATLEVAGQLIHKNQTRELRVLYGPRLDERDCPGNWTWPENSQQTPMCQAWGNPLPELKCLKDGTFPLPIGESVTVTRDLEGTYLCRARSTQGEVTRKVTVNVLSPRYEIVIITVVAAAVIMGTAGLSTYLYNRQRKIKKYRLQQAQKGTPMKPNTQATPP

Molecule: H-DLRNVKKLGG-H (H-[dD][dL][dR][dN][dV][dK][dK][dL]GG; not fully specified; also: C-terminus written -H) [D-LBEC]
- inhibitory effect on T-cell proliferation [1]: did not show any inhibitory effects
- Inhibition of T-cell Proliferation (%) [1, 3]: −47.6(*4) %

Molecule: H-GGDLLRALNE-OH (H-GG[dD][dL][dL][dR][dA][dL][dN][dE]-OH) [D-LBER]
- inhibitory effect on T-cell proliferation [1]: lost the biological function to inhibit T-cell proliferation
- Inhibition of T-cell Proliferation (%) [1, 3]: −90.5(*4) %

Molecule: CC(C)C[C@@H]1NC(=O)[C@H](CCCCN)NC(=O)[C@H](CCCCN)NC(=O)[C@H](C(C)C)NC(=O)[C@H](CC(N)=O)NC(=O)[C@H](CCCNC(=N)N)NC(=O)[C@H](CC(C)C)NC(=O)[C@H](CC(=O)O)NC(=O)[C@@H](N)C(C)(C)SSC[C@@H](C(N)=O)NC(=O)CNC(=O)CNC1=O [cLBEC, H-PenDLRNVKKLGGC-NH2] (H-[Pen]DLRNVKKLGGC-NH2; disulfide 1-12)
- effectiveness in inhibiting responder T-cell proliferation [1]: more effective than LBE

Molecule: LBEL: linear L-peptide of Table 2, sequence not printed (DLSYSLDDLR)
- Inhibition of T-cell Proliferation (%) ([1]; linear L-peptides (*1), second value of cell 'x/y'): N.D./24.8%

Molecule: CC(C)C[C@@H]1NC(=O)[C@H](CC(=O)O)NC(=O)[C@H](CC(=O)O)NC(=O)[C@H](CC(C)C)NC(=O)[C@H](CO)NC(=O)[C@H](Cc2ccc(O)cc2)NC(=O)[C@H](CO)NC(=O)[C@H](CC(C)C)NC(=O)[C@H](CC(=O)O)NC(=O)[C@@H](N)C(C)(C)SSC[C@@H](C(N)=O)NC(=O)[C@H](CCCNC(=N)N)NC1=O [cLBEL, H-PenDLSYSLDDLRC-NH2] (H-[Pen]DLSYSLDDLRC-NH2; disulfide 1-12)
- effectiveness in inhibiting responder T-cell proliferation [1]: more effective than LBE

Molecule: CC(C)C[C@@H](NC(=O)[C@H](N)CC(=O)O)C(=O)N[C@H](CO)C(=O)N[C@H](Cc1ccc(O)cc1)C(=O)N[C@H](CO)C(=O)N[C@H](CC(C)C)C(=O)N[C@H](CC(=O)O)C(=O)N[C@H](CC(=O)O)C(=O)N[C@H](CC(C)C)C(=O)N[C@H](CCCNC(=N)N)C(=O)O [D-LBEL, H-DLSYSLDDLR-OH] (H-[dD][dL][dS][dY][dS][dL][dD][dD][dL][dR]-OH)
- inhibiting T-cell proliferation in MLR assays [1]: significantly effective
- inhibitory effect on T-cell proliferation [1]: amazing inhibitory effect, which was much more effective than either LBE or cLBEL

B1: D-LBER (peptide)
peptide: H-GG[dD][dL][dL][dR][dA][dL][dN][dE]-OH
SMILES: CC(C)C[C@@H](NC(=O)[C@@H](C)NC(=O)[C@@H](CCCNC(=N)N)NC(=O)[C@@H](CC(C)C)NC(=O)[C@@H](CC(C)C)NC(=O)[C@@H](CC(=O)O)NC(=O)CNC(=O)CN)C(=O)N[C@H](CC(N)=O)C(=O)N[C@H](CCC(=O)O)C(=O)O
- Inhibition of T-cell Proliferation (%) in mixed lymphocyte reaction, peptide at 500 µM [2]: -90.5%

Molecule: DLSYSLDDLR [LBEL (linear L-peptide)]
- Inhibition of T-cell Proliferation (%) in mixed lymphocyte reaction, peptide at 500 µM [2]: 24.8%

B2: cLBEL (peptide)
peptide: H-[Pen]DLSYSLDDLRC-NH2
modifications: disulfide 1-12
SMILES: CC(C)C[C@@H]1NC(=O)[C@H](CC(=O)O)NC(=O)[C@H](CC(=O)O)NC(=O)[C@H](CC(C)C)NC(=O)[C@H](CO)NC(=O)[C@H](Cc2ccc(O)cc2)NC(=O)[C@H](CO)NC(=O)[C@H](CC(C)C)NC(=O)[C@H](CC(=O)O)NC(=O)[C@@H](N)C(C)(C)SSC[C@@H](C(N)=O)NC(=O)[C@H](CCCNC(=N)N)NC1=O
- Inhibition of T-cell Proliferation (%) in mixed lymphocyte reaction, peptide at 500 µM [2]: 18%

B3: D-LBEL (peptide)
peptide: H-[dD][dL][dS][dY][dS][dL][dD][dD][dL][dR]-OH
SMILES: CC(C)C[C@@H](NC(=O)[C@H](N)CC(=O)O)C(=O)N[C@H](CO)C(=O)N[C@H](Cc1ccc(O)cc1)C(=O)N[C@H](CO)C(=O)N[C@H](CC(C)C)C(=O)N[C@H](CC(=O)O)C(=O)N[C@H](CC(=O)O)C(=O)N[C@H](CC(C)C)C(=O)N[C@H](CCCNC(=N)N)C(=O)O
- Inhibition of T-cell Proliferation (%) in mixed lymphocyte reaction, peptide at 500 µM [2]: 56.5%

B4: cLBEC (peptide)
peptide: H-[Pen]DLRNVKKLGGC-NH2
modifications: disulfide 1-12
SMILES: CC(C)C[C@@H]1NC(=O)[C@H](CCCCN)NC(=O)[C@H](CCCCN)NC(=O)[C@H](C(C)C)NC(=O)[C@H](CC(N)=O)NC(=O)[C@H](CCCNC(=N)N)NC(=O)[C@H](CC(C)C)NC(=O)[C@H](CC(=O)O)NC(=O)[C@@H](N)C(C)(C)SSC[C@@H](C(N)=O)NC(=O)CNC(=O)CNC1=O
- Inhibition of T-cell Proliferation (%) in mixed lymphocyte reaction, peptide at 500 µM [2]: 18%

Molecule: H-[dD][dL][dR][dN][dV][dK][dK][dL]GG (not fully specified (C-terminus)) [D-LBEC]
- Inhibition of T-cell Proliferation (%) in mixed lymphocyte reaction, peptide at 500 µM [2]: -47.6%
